These results are taken from patent US20140079836A1, “METHODS AND COMPOSITIONS FOR ALTERING HEALTH, WELLBEING, AND LIFESPAN” (LifeSpan Extension, LLC, priority 2008, published 2014).

This experiment deals with TERT, TPP1, TERF1, TERF2, TINF2, POT1. Kind of experiment: qPCR primer assays of telomere complex genes in skin fibroblasts AG07999. Format: cell-based, human. The note with it: 24 hours; 1 uM idebenone, 0.001% coffee cherry; FIG. 7. The protocol:
Cell cultures: A human skin fibroblast cell culture was obtained through the Coriell Cell Repository from the National Institute on Aging Cell Repository. The culture, AG07999, was established from a biopsy of a person. Culture media: Cells were grown in Minimal Essential Medium supplemented with 10% fetal bovine serum, 2 mM L-glutamine, 2 mM Glutamax I. […] All cultures were incubated at 37° C. with 5% CO2 in a humidified chamber. Seeding of cells: […] Experimental phase: […] On Day 5 after 24 hours of exposure to test conditions, the cells were isolated and the RNA isolated using the RT^2q PCR-grade RNA isolation kit (Superarray Bioscience Corporation). […] The RNA was quantified and examined for purity using the 260/280 nm read method in a μQuant spectrophotometer before use in the array. Performance of the qPCR Primer Assays: […] The assay was performed in compliance with manufacturer's guidelines and by recommended manufacturer's protocol as can be found on the World Wide Web at superarray.com/Manual/realtimePCR.pdf. […] Any values out of range of the threshold cycles or inconsistent within the assay were discarded from analysis. qPCR Primer Assay results: The results from assays were determined using the delta CT method, which uses comparisons of control genes and threshold cycles of genes of interest to generate relative expression values (this process is handled by the GeneX package).
For orientation: In qPCR the cycle at which signal appears reflects the starting amount.

Take `COC1=C(OC)C(=O)C(CCCCCCCCCCO)=C(C)C1=O` [Idebenone, 6-(10-hydroxydecyl)-2,3-dimethoxy-5-methyl-1,4-benzoquin-one]: the TERF1 expression level result is “effected” and the TERF2 expression level entry is reported as “effected”.
